Converted amounts (≈) assume the structure as drawn.
Columns and labels:
A549 cell line = assay: MTT cytotoxicity assay; type: cell-based
Outline: (§1)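 Exponentially growing cells, cultured 24 h, then exposed to 10–100 μM compound for 24 and 48 h. MTT added for 4 h at 37 °C, formazan dissolved in DMSO, absorbance read at 570 nm; triplicate experiments.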

HeLa cell line = assay: MTT cytotoxicity assay; type: cell-based; details: for cytotoxicity: 24 h culture
Outline: as §1

T47D cell line = assay: MTT cytotoxicity assay; type: cell-based
Outline: as §1

[1] = test system: Staphylococcus aureus ATCC 25923; assay: Broth microdilution MIC/MBC; details: Staphylococcus aureus, ATCC25923
[2] = test system: Staphylococcus aureus ATCC 29213; assay: Broth microdilution MIC/MBC; details: ATCC29213
[3] = test system: Staphylococcus aureus ATCC 43300; assay: Broth microdilution MIC/MBC; details: ATCC43300 / MRSA
[4] = test system: Bacillus subtilis ATCC 6633; assay: Broth microdilution MIC/MBC; details: ATCC6633
[5] = test system: Bacillus cereus ATCC 10876; assay: Broth microdilution MIC/MBC; details: Bacillus cereus, ATCC10876
[6] = test system: Bordetella bronchiseptica ATCC 4617; assay: Broth microdilution MIC/MBC; details: ATCC4617
[7] = test system: Klebsiella pneumoniae ATCC 13883; assay: Broth microdilution MIC/MBC; details: ATCC13883
[8] = test system: Pseudomonas aeruginosa ATCC 9027; assay: Broth microdilution MIC/MBC; details: ATCC9027

SMILES: O=C(N/N=C/c1cc(Cl)cc(I)c1O)c1ccc(I)cc1 [Compound 27, N-[(5-chloro-2-hydroxy-3-iodophenyl)methylidene]-4-iodobenzohydrazide]
- cell proliferation (A549 cell line; A549, 24h, 10 µM, Repeat No 1): 95%
- cell proliferation (A549 cell line; A549, 24h, 10 µM, Repeat No 2): 92%
- cell proliferation (A549 cell line; A549, 24h, 25 µM, Repeat No 1): 97%
- cell proliferation (A549 cell line; A549, 24h, 25 µM, Repeat No 2): 89%
- cell proliferation (A549 cell line; A549, 24h, 50 µM, Repeat No 1): 94%
- cell proliferation (A549 cell line; A549, 24h, 50 µM, Repeat No 2): 87%
- cell proliferation (A549 cell line; A549, 24h, 75 µM, Repeat No 1): 87%
- cell proliferation (A549 cell line; A549, 24h, 75 µM, Repeat No 2): 92%
- cell proliferation (A549 cell line; A549, 24h, 100 µM, Repeat No 1): 109%
- cell proliferation (A549 cell line; A549, 24h, 100 µM, Repeat No 2): 103%
- effect on proliferation in words (A549 cell line; A549, 24 h culture, dose of 100 µM): increase in the proliferation of cancer cells
- cell proliferation (A549 cell line; A549, 48h, 10 µM, Repeat No 1): 84%
- cell proliferation (A549 cell line; A549, 48h, 10 µM, Repeat No 2): 87%
- cell proliferation (A549 cell line; A549, 48h, 25 µM, Repeat No 1): 87%
- cell proliferation (A549 cell line; A549, 48h, 25 µM, Repeat No 2): 82%
- cell proliferation (A549 cell line; A549, 48h, 50 µM, Repeat No 1): 88%
- cell proliferation (A549 cell line; A549, 48h, 50 µM, Repeat No 2): 89%
- cell proliferation (A549 cell line; A549, 48h, 75 µM, Repeat No 1): 91%
- cell proliferation (A549 cell line; A549, 48h, 75 µM, Repeat No 2): 87%
- cell proliferation (A549 cell line; A549, 48h, 100 µM, Repeat No 1): 98%
- cell proliferation (A549 cell line; A549, 48h, 100 µM, Repeat No 2): 95%
- cell proliferation (HeLa cell line; 24h, 10 µM, Repeat No 1): 74%
- cell proliferation (HeLa cell line; 24h, 10 µM, Repeat No 2): 83%
- cell proliferation (HeLa cell line; 24h, 25 µM, Repeat No 1): 69%
- cell proliferation (HeLa cell line; 24h, 25 µM, Repeat No 2): 73%
- cell proliferation (HeLa cell line; 24h, 50 µM, Repeat No 1): 61%
- cell proliferation (HeLa cell line; 24h, 50 µM, Repeat No 2): 67%
- cell proliferation (HeLa cell line; 24h, 75 µM, Repeat No 1): 72%
- cell proliferation (HeLa cell line; 24h, 75 µM, Repeat No 2): 69%
- cell proliferation (HeLa cell line; 24h, 100 µM, Repeat No 1): 63%
- cell proliferation (HeLa cell line; 24h, 100 µM, Repeat No 2): 59%
- cytotoxicity (HeLa cell line; dose of 50 µM): 37%
- cytotoxicity (HeLa cell line; dose of 100 µM): 41%
- cell proliferation (HeLa cell line; 48h, 10 µM, Repeat No 1): 77%
- cell proliferation (HeLa cell line; 48h, 10 µM, Repeat No 2): 82%
- cell proliferation (HeLa cell line; 48h, 25 µM, Repeat No 1): 82%
- cell proliferation (HeLa cell line; 48h, 25 µM, Repeat No 2): 71%
- cell proliferation (HeLa cell line; 48h, 50 µM, Repeat No 1): 61%
- cell proliferation (HeLa cell line; 48h, 50 µM, Repeat No 2): 49%
- cell proliferation (HeLa cell line; 48h, 75 µM, Repeat No 1): 51%
- cell proliferation (HeLa cell line; 48h, 75 µM, Repeat No 2): 43%
- cell proliferation (HeLa cell line; 48h, 100 µM, Repeat No 1): 63%
- cell proliferation (HeLa cell line; 48h, 100 µM, Repeat No 2): 57%
- cell proliferation (T47D cell line; 24h, 10 µM, Repeat No 1): 96%
- cell proliferation (T47D cell line; 24h, 10 µM, Repeat No 2): 91%
- cell proliferation (T47D cell line; 24h, 25 µM, Repeat No 1): 91%
- cell proliferation (T47D cell line; 24h, 25 µM, Repeat No 2): 82%
- cell proliferation (T47D cell line; 24h, 50 µM, Repeat No 1): 83%
- cell proliferation (T47D cell line; 24h, 50 µM, Repeat No 2): 79%
- cell proliferation (T47D cell line; 24h, 75 µM, Repeat No 1): 84%
- cell proliferation (T47D cell line; 24h, 75 µM, Repeat No 2): 87%
- cell proliferation (T47D cell line; 24h, 100 µM, Repeat No 1): 86%
- cell proliferation (T47D cell line; 24h, 100 µM, Repeat No 2): 91%
- cell proliferation (T47D cell line; 48h, 10 µM, Repeat No 1): 82%
- cell proliferation (T47D cell line; 48h, 10 µM, Repeat No 2): 75%
- cell proliferation (T47D cell line; 48h, 25 µM, Repeat No 1): 88%
- cell proliferation (T47D cell line; 48h, 25 µM, Repeat No 2): 84%
- cell proliferation (T47D cell line; 48h, 50 µM, Repeat No 1): 81%
- cell proliferation (T47D cell line; 48h, 50 µM, Repeat No 2): 80%
- cell proliferation (T47D cell line; 48h, 75 µM, Repeat No 1): 79%
- cell proliferation (T47D cell line; 48h, 75 µM, Repeat No 2): 72%
- cell proliferation (T47D cell line; 48h, 100 µM, Repeat No 1): 83%
- cell proliferation (T47D cell line; 48h, 100 µM, Repeat No 2): 81%
- melting point: 200 to 201 °C
- MBC [1]: 250 µg/mL (≈ 475 µM)
- MIC [1]: 62.5 µg/mL (≈ 119 µM)
- MBC [2]: 125 µg/mL (≈ 237 µM)
- MIC [2]: 62.5 µg/mL (≈ 119 µM)
- MBC [3]: 250 µg/mL (≈ 475 µM)
- MIC [3]: 62.5 µg/mL (≈ 119 µM)
- MBC [4]: 500 µg/mL (≈ 950 µM)
- MIC [4]: 125 µg/mL (≈ 237 µM)
- MBC [5]: 250 µg/mL (≈ 475 µM)
- MIC [5]: 62.5 µg/mL (≈ 119 µM)
- MBC [6]: 1000 µg/mL (≈ 1900 µM)
- MBC/MIC [6]: 2
- MIC [6]: 500 µg/mL (≈ 950 µM)
- MBC [7]: > 1000 µg/mL
- MBC/MIC [7]: > 2
- MIC [7]: 500 µg/mL (≈ 950 µM)
- MBC [8]: > 1000 µg/mL
- MBC/MIC [8]: > 1
- MIC [8]: 1000 µg/mL (≈ 1900 µM)

Reference: publication PMC11356900, “Synthesis, Structural Properties and Biological Activities of Novel Hydrazones of 2-, 3-, 4-Iodobenzoic Acid” (Molecules, 2024)
